Measurements reported in ChEMBL document CHEMBL1137647, “vanD and vanG-like gene clusters in a Ruminococcus species isolated from human bowel flora” (2007).

Test system: Ruminococcus sp.
Assay: Antimicrobial activity against Ruminococcus sp. CCRI-16110 containing vanD-like gene by agar dilution method
Assay type: functional

Compound | MIC [µg/mL]
Cc1ncc([N+](=O)[O-])n1CCO [METRONIDAZOLE] | < 0.125
CN[C@H](CC(C)C)C(=O)N[C@H]1C(=O)N[C@@H](CC(N)=O)C(=O)N[C@H]2C(=O)N[C@H]3C(=O)N[C@H](C(=O)N[C@H](C(=O)O)c4cc(O)cc(O)c4-c4cc3ccc4O)[C@H](O)c3ccc(c(Cl)c3)Oc3cc2cc(c3O[C@@H]2O[C@H](CO)[C@@H](O)[C@H](O)[C@H]2O[C@H]2C[C@](C)(N)[C@H](O)[C@H](C)O2)Oc2ccc(cc2Cl)[C@H]1O [VANCOMYCIN] | > 256
